Results reported in US8153593B2, “Transglutaminase inhibitors and methods of use thereof” (The Board of Trustees of the Leland Stanford Junior …, priority 2003, dated 2012).

Experiments:
[1] = target: T1, tumor associated TG2 (Mus musculus, UniProt P21981); experiment: Intracranial DBT tumor associated TG2 activity after dosing; assay type: in vivo, mice
T1 construct: from tissue; host or cells: intracranial DBT glioblastoma tumours from dosed mice
T1 sequence (P21981 1-686): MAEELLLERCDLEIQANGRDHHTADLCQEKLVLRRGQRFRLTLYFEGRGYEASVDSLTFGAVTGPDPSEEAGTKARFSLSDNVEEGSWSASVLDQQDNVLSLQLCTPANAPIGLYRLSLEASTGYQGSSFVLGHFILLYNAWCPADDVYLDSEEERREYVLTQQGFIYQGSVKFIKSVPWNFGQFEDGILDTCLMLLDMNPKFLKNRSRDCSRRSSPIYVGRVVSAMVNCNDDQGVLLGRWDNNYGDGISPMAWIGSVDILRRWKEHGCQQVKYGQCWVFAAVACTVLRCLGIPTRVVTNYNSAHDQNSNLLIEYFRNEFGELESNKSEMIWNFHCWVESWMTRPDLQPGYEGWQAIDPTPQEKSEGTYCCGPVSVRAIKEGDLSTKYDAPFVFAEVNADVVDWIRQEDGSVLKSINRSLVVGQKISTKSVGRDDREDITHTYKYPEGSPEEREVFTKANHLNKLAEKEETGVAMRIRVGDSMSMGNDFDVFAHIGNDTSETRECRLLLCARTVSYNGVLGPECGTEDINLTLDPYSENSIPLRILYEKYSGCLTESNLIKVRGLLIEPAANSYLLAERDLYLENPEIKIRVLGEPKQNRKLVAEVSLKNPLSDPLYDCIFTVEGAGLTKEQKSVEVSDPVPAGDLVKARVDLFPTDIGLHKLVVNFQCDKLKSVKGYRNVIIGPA
Experimental: (§1) To test whether therapeutic doses of KCC009 can modulate TG2 activity associated with intracranial glioblastomas, DBT tumors were injected intracranially in mice. As judged by MRI, the mice consistently established intracranial tumors after 7-10 days following injections, which, if untreated, caused death by 2-3 weeks. In an initial dose-finding experiment, cohorts of mice were administered 4 daily doses of vehicle or KCC009 (12.5 mg/kg, 25 mg/kg and 50 mg/kg) starting on day 11 after intra-cranial injections. Twenty-four hours later, the mice were sacrificed and tumors analyzed. […] Based on these findings a dose of 35 mg/kg was used for subsequent experiments in mice harboring intracranial DBT tumors.
As summarized in Table 4, KCC009 treatment led to significant suppression of TG2 activity after 15 min, whereas enzyme activity recovers fully by 24 h. Both uninhibited and inhibited activity levels are consistent with similar measurements in the small intestinal mucosa (data not shown).

[2] = target: T2, jejunal TG2 (Rattus norvegicus, UniProt Q9WVJ6); experiment: Jejunal mucosal TG2 activity after oral dosing in kneaded gluten vehicle; assay type: in vivo, rats; conditions: 35 mg/kg oral in kneaded gluten vehicle, 1 h after administration
T2 construct: from tissue; host or cells: rat jejunal mucosa
T2 sequence (Q9WVJ6 1-686): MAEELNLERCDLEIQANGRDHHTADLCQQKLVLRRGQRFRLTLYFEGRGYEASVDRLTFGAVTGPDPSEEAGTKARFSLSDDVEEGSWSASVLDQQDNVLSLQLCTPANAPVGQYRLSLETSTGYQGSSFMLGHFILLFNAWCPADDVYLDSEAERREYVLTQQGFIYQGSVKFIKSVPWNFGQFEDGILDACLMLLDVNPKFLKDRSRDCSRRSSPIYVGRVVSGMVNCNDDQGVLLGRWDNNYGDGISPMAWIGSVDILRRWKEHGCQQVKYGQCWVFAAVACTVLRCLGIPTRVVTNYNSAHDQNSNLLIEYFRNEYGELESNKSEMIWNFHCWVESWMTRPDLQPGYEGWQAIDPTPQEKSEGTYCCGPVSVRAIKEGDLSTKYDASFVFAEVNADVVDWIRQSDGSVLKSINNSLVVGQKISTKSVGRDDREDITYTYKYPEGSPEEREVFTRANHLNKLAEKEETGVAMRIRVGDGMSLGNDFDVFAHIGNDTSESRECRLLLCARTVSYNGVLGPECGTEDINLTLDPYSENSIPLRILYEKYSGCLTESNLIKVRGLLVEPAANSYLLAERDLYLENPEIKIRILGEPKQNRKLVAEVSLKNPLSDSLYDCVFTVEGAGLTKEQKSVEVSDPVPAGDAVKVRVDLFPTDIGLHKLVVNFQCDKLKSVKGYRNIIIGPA
Source text: Due to the absence of an appropriate animal model for Celiac Sprue, the therapeutic benefit of TG2 inhibitors for this disease can only be validated in patients. Our goal is therefore to identify a safe, oral TG2 inhibitor that can block mucosal TG2 activity in the upper small intestine of Celiac Sprue patients. Such an agent could be used in the context of a short (2 week) blinded crossover trial in Celiac Sprue patients to determine if TG2 inhibition protects a Celiac Sprue patient from gluten-induced malabsorption. From available data, KCC009 may be precisely such a compound. […] To test whether orally administered KCC009 can inhibit jejunal TG2 activity, adult male rats were dosed with 35 mg/kg KCC009 in a kneaded gluten vehicle. Animals were sacrificed 1 h after administration of either vehicle-gluten (n=3) or drug-gluten (n=4), and jejunal mucosa was harvested. In vehicle treated animals, jejunal TG2 activity was 21±7 pmol/min/mg protein, whereas in KCC009 treated rats TG2 activity of 5.5±3 pmol/min/mg protein was observed. Thus, a suitable oral formulation may therefore enable local delivery of KCC009 to intestinal mucosa.

[3] = test system: B16 mouse melanoma cells; experiment: Melanoma cell treatment with KCC009 and/or BCNU; assay type: cell-based; conditions: 24 h, 1 mM KCC009 alone or with 6.25 μM BCNU
Experimental: FIG. 6A-6D: Photomicrographs of B16 (mouse melanoma cells) after 24 h treatment with KCC009 and/or BCNU. A) Control; B) 1 mM KCC009 only; C) 6.25 μM BCNU only; D) KCC009+BCNU combination.
Activity of KCC009 against melanomas: Melanomas are cancers of the neural crest-derived cells that provide pigmentation to skin and other tissues. No current treatments substantially enhance patient survival once metastasis has occurred.

[4] = test system: intracranial DBT tumors; experiment: Intracranial DBT glioblastoma dose-finding and chemosensitizer studies; assay type: in vivo, mice
Experimental: as §1
To evaluate the activity of KCC009 as a chemosensitizer, mice harboring DBT tumors were treated either with 10 mg/kg BCNU alone (2 mice) or BCNU+35 mg/kg KCC009 (3 mice). As before, 4 daily drug doses were administered intraperitoneally starting on day 11. Tumors were harvested for immuno-histological analysis 24 h after the last dose.

SMILES: O=C(N[C@@H](Cc1ccc(O)cc1)C(=O)NCC1CC(Br)=NO1)OCc1ccccc1 (stereo partly shown) [Compound 59]
- TG2 activity-BCNU + KCC009 ([1]; BCNU + 50 mg/kg KCC009, 15 min after last of four daily doses): 1.2 ± 0.3 (n = 4) nmol/h/mg protein
- TG2 activity-BCNU + KCC009 ([1]; BCNU + 50 mg/kg KCC009, 24 h after last of four daily doses): 2.1 ± 0.2 (n = 3) nmol/h/mg protein
- jejunal TG2 activity [2]: 5.5±3 pmol/min/mg protein
- sensitivity of melanoma cells [3]: sensitive
- fibronectin staining of tumors ([4]; 10 mg/kg BCNU + 35 mg/kg KCC009 i.p., 4 daily doses, versus BCNU alone): decrease in fibronectin staining overall and an apparent dramatic decrease in the extracellular matrix
- gross tumor size and brain swelling ([4]; 12.5 mg/kg or 25 mg/kg, 4 daily doses from day 11): smaller tumors and reduced brain swelling
- gross tumor ([4]; 50 mg/kg, 4 daily doses from day 11, one mouse): did not have any gross tumor
